For assay [1], the system named is non-CSC (HMLER CD24^high ID2) cells. Kind of assay: Immunoblotting of iron homeostasis regulatory proteins. Format: cell-based, human. On the procedure: (§1) Immunoblotting. Cells were treated as indicated, then washed twice with PBS and lysed with 2× Laemmli buffer. Cell extracts were heated at 95° C. for 5 min, sheared through a 26-gauge needle and quantified with a Nanodrop 2000 (Thermo Scientific). Protein lysates (˜100 μg) were resolved by SDS-PAGE electrophoresis and transferred onto PVDF membranes (Amersham). Membranes were blocked with 5% BSA, 0.1% Tween-20/TBS for 1 h. The blots were then probed with the relevant primary antibodies in 5% BSA, 0.1% Tween-20/TBS at 4° C. overnight with gentle agitation. Membranes were washed with 0.1% Tween-20/TBS for 30 min and were incubated with secondary antibodies for 1 h at RT. Antigens were detected by ECL (Amersham). Imaging was performed using a ChemiDoc™ XRS+ System (Biorad).
In general terms: Immunoblotting shows a protein as a band on a membrane.

In a further assay the test system is iCSCA2 cells. The description is as above. The format is cell-based. On the procedure:
as §1

For assay [2], the system named is HMLER CD24^low and iCSCL-10A2 cells. The experiment in a line: Lipid ROS measurements (Bodipy-C11). Format: cell-based. As to conditions: 0.5 μM, 48 h. On the procedure:
Lipid ROS measurements. Cells were treated with Sal or AM5 (0.5 μM) as indicated. Then, cells were trypsinized and washed with PBS. Subsequently, cells were incubated with Bodipy-C11® (D3861, Thermo Fisher Scientific, 2 μM) at 37° C. for 60 min. Next, cells were washed twice with PBS. […] The data were processed using Cell Quest software (BD Biosciences) and FlowJo software (FLOWJO, LLC). For cell imaging, cells were treated as indicated in the main figure (Bodipy-C11®, 1 μM, 1 h), then fixed with formaldehyde (2% in PBS, 12 min) and analyzed by fluorescence microscopy (ex. 488 nm).

Assay [3] shares this test system. The experiment in a line: Intracellular GSH level quantification. Format: cell-based. As to conditions: 0.5 μM. Here is the method: Intracellular GSH level quantification. Cells were treated with Sal or AM5 (0.5 μM) as indicated, then harvested and counted. The intracellular GSH level was measured using a commercial kit (ab205811, Abcam) according to the manufacturer's protocol.

The test system of assay [4] is cells from treated PDX 1 and 2. The experiment in a line: Limiting dilution assay, tumor-seeding capacity (ELDA). As to conditions: re-implantation into secondary mice. Format: in vivo, NOD/SCID mice. From the text: Limiting dilution assay. Cells from 4-week treated mice were re-implanted into one to four secondary NOD/SCID mice with injection of 10, 50, 500 or 5000 cells for each treated tumor to functionally evaluate the proportion of residual CSCs in each treatment group (Unt., Doc, Sal, AM5) for the PDX 1 and 2. Each mouse that developed a tumor reaching a size of 10 mm was considered as a tumor-bearing mouse.
Estimation of number of CSCs in vivo. The number of mammary gland outgrowths obtained in a fat pad after cell re-implantation is currently used to evaluate the number of stem cells able to repopulate this fat pad. It is based on self-renewal and differentiation abilities, two hallmarks of stem cells. In the same manner, estimation of the number of CSCs can be obtained from tumor outgrowth data collected after limited dilution re-implantation of each group of treatments, based on tumor-initiating capacities of CSCs. For calculation, an online tool is available using Extreme Limiting Dilution Analysis (ELDA) (http://bioinf.wehi.edu.au/software/elda/) for limiting dilution analysis based on the Poisson single-hit model according to the number of outgrowths observed and the number of pat pad re-implanted for each cell dilution.

Another assay deals with HMLER CD24^low cells. The experiment in a line: Immunoblotting of iron homeostasis regulatory proteins. The format is cell-based, human. As to conditions: for level of autophagy marker protein LC3-II: 24 h; for levels of IRP2, TfR and ferritin: immunoblotting.

“Also recorded” adds a separate entry of the source.

`CC[C@@H](C(=O)[C@@H](C)[C@@H](O)[C@H](C)[C@@H]1O[C@@H]([C@@H](CC)C(=O)O)CC[C@@H]1C)[C@H]1O[C@]2(C=C[C@@H](O)[C@]3(CC[C@@](C)([C@H]4CC[C@](O)(CC)[C@H](C)O4)O3)O2)[C@H](C)C[C@@H]1C` [Sal, salinomycin, reference compound]: in assay [1], the level of ferritin result is on record as “reduced the level of ferritin”; the “response of IRP2 and TfR levels” value is “did not observe a response characteristic of a cytosolic depletion of iron”. Further, in the assay on iCSCA2 cells, the “levels of IRP2, TfR and ferritin” value is “response characteristic of a cytosolic depletion of iron”. For the same molecule, the “lipid ROS (Bodipy-C11 staining)” value in assay [2] is on record as “presence of lipid peroxidation”. In assay [3], the “endogenous levels of GSH” value was “diminution of endogenous levels of the ROS scavenger glutathione (GSH)”. Moreover, the “tumor-seeding capacity of tumor cells treated in vivo” value in assay [4] is given as “decreased tumor-seeding capacity”. In the assay on HMLER CD24^low cells, the “level of autophagy marker protein LC3-II” value is reported as “increased”; the “levels of IRP2, TfR and ferritin” value was “increased levels of iron-responsive element-binding protein 2 (IRP2) and transferrin receptor (TfR) along with reduced levels of ferritin”.

Consider `C#CCN[C@@H]1C=C[C@]2(O[C@H]([C@@H](CC)C(=O)[C@@H](C)[C@@H](O)[C@H](C)C3O[C@@H](C(CC)C(=O)O)CC[C@@H]3C)[C@@H](C)C[C@H]2C)O[C@@]12CC[C@@](C)([C@H]1CC[C@](O)(CC)[C@H](C)O1)O2` (stereo partly shown) [AM5, Sal-Propargylamine], for which, in assay [1], the level of ferritin entry is “reduced the level of ferritin”; the “response of IRP2 and TfR levels” value was “did not observe a response characteristic of a cytosolic depletion of iron”. In the assay with iCSCA2 cells, the “levels of IRP2, TfR and ferritin” value was “response characteristic of a cytosolic depletion of iron”. Also, the “lipid ROS (Bodipy-C11 staining)” value in assay [2] is listed as “presence of lipid peroxidation”. The “endogenous levels of GSH” value in assay [3] was “diminution of endogenous levels of the ROS scavenger glutathione (GSH)”. Also, the “tumor-seeding capacity of tumor cells treated in vivo” value in assay [4] is “decreased tumor-seeding capacity; also recorded: more potent than both Sal and Doc”. In addition, in the assay on HMLER CD24^low cells, the “level of autophagy marker protein LC3-II” value is listed as “increased”; the “levels of IRP2, TfR and ferritin” value was “increased levels of iron-responsive element-binding protein 2 (IRP2) and transferrin receptor (TfR) along with reduced levels of ferritin”.

(Values after patent publication US11573241B2, “Total cellular iron as a marker of cancer stem cells and uses thereof” (Institut National de la Sante et de la Recherche Medicale …, priority 2016, dated 2023).)
